The results in this text go back to article PMC9408991, “Antitumor Effects of a New Retinoate of the Fungal Cytotoxin Illudin M in Brain Tumor Models” (International Journal of Molecular Sciences, 2022).

One experiment relates to NE-4C neural stem cells. As to the kind of experiment: Neuronal differentiation of NE-4C neural stem cells (β-tubulin III staining). In kind it is cell-based, mouse. The following applies: 10 nM, β-tubulin III staining. How it is done:
NE-4C cells and their differentiated progeny neurons can be immunohistochemically distinguished by the presence of β-tubulin III only in the latter (Figure 3).
Astroglia cells grown on poly-L-lysine-coated glass cover slips were fixed with 4% paraformaldehyde in PBS for 20 min at room temperature and then permeabilized with Triton X-100 (0.1% v/v in PBS; 5 min). Nonspecific antibodies were blocked by incubation with 3% FBS in PBS (room temperature, 1 h). α-GFAP antibody (rabbit, DAKO) was used in a dilution of 1:2000 and was visualized by anti-rabbit IgG Alexa 594 (1:1000). DAPI (4′,6-diamidino-2-phenylindole) was used for nuclei staining. Fluorescence images were captured manually on a Zeiss Axiovert 200 M microscope fitted with 20- to 60-fold zoom and a Zeiss AxioCam MRm digital camera. Further applied antibodies were tubulin III (Sigma T5076), used at a dilution of 1:1000, and Annexin V. Cy3.18 (Sigma A4963).

Experiment [1] deals with retinoid-responsive elements (RARE). As to the kind of experiment: RA reporter assay, F9 RARE-lacZ reporter cells. Type of experiment: cell-based. The following applies: 10 nM; control 45. An excerpt: More typical of retinoic acid is its contribution to cell differentiation during vertebrate embryonic development by interacting with nuclear receptors, which bind to specific retinoid-responsive elements (RARE) within the promoters of subordinate genes, activating their transcription. To verify that retinoate 2 also binds to RARE, we used a reporter assay with F9 teratocarcinoma cells featuring a RARE located within the cis-acting regulatory sequences of the human retinoic acid receptor alpha gene and immediately upstream of the E. coli lacZ genes, which thus acquire retinoid responsivity. LacZ expression in cells treated with various concentrations of 2 was then quantitated by densitometric analysis of β-galactosidase activity visualized by X-Gal staining.
The F9 embryonal carcinoma cell line, stably transfected with the 1.8 kb promoter sequence of RARb2 coupled to the lacZ gene, was used to measure active retinoids. The assay is appropriate for detection of all-trans RA but is able to detect other retinoid isomers as well. The F9 reporter cells were maintained in 10% FCS containing DMEM in the presence of 400 ug/mL G418. A day before the assay, F9 cell were seeded onto 24-well plates (100,000 cell/well). The cells were than treated with various concentrations of 2. […]

With `CC1=C(/C=C/C(C)=C/C=C/C(C)=C/C(=O)O)C(C)(C)CCC1` [all-trans retinoic acid, reference compound], the “differentiation of NE-4C stem cells to neurons” value in the experiment with NE-4C neural stem cells is on record as “differentiate to neurons”. Also, the “gray value (densitometric analysis of β-galactosidase activity)” value in experiment [1] was determined as 175.
